Each structure is given as a SMILES string. Read-outs that look alike come from different tables or passages of the source.

For data set [1], the system named is serotonin-2 (5-HT2) receptors of both blood vessels and brain. Particulars: DeFeudis 1989; cited from earlier work.
Data set [2] relates to calcium channel. Particulars: DeFeudis 1989; cited from earlier work.
Data set [3] has as its target T1, slow Ca^2+ channel binding sites (Cavia porcellus, UniProt O35505).
T1 construct: forebrain; from tissue; host or cells: guinea-pig forebrain
The data set can be described thus: Ca2+ receptor binding, 3H-nitrendipine competition. Particulars: for competition curve at slow Ca^2+ channel binding sites: 3H-nitrendipine competition, in words; for Ki: guinea-pig forebrain, 3H-nitrendipine 0.2 nM, pH 7.4, 25 °C, 90 min, read-out: CA2^+ BINDING pKi (converted). Set-up: species or system guinea-pig. As for the experimental part:
(§1) Receptor binding experiments were conducted under the experimental conditions described in Table III. ^3 H-nitrendipine is the radioligand of choice to determine, after competition at different concentrations, the affinity of compounds of the invention, for the slow Ca^2+ channel binding sites. […] After this in vitro biochemical testing, the compounds of the invention were tested for their CA^2+ antagonist properties on isolated organs. The method used was updated from M Spedding (Nauyn-Schmiedeberg's Arch. Pharmacol., 318, 234-240, 1982) and can be summarized as follows: Aorta rings from male rats were prepared and maintained in oxygenated Krebs solution at 37° C. The contractions were induced by 40 mM K+ in the absence or in the presence of the test compound. Each test compound was tested at least twice. […] The phasic and tonic parts of each response elicited by K+ were considered separately and were expressed in % of their corresponding controls. The IC50 values (from pIC50) were estimated by plotting the % response against the log of the concentrations.
(§2) Methodological Data for In Vitro Binding Assay of Various Receptors
(§3) KD values (Dissociation Constant) were determined by Scatchard analysis. Ki values (Inhibition Constant) were calculated according to the Cheng and Prusoff equation, using IC50 values: [formula]

Data set [4] has as its system α1 -adrenergic receptor. The data set can be described thus: α1-adrenergic receptor binding, 3H-WB4101, rat forebrain. Particulars: for affinity for the α1 -adrenergic receptor: 3H-WB4101, rat forebrain, in words; for α1 pKi: rat forebrain, 3H-WB-4101 1.6 nM, pH 7.4, 25 °C, 15 min, values marked (2) are estimated. The procedure: as §2, §3
Data set [5] in a line: Acute oral toxicity in mice. Particulars: mouse, in vivo, male mice, mortality over 15 days. As for the experimental part:
Compounds #1, #2 , #3, #4 and #7 were tested for acute toxicity. The acute toxicity was determined after oral administration of the test compound to mice. Compound to be tested was suspended in a 1% tragacanth gum mucilage and was administered by means of an intragastric tube to a group of three male mice per dose. The mortailty was recorded over a period of 15 days.

In data set [6] the test system is femoral arterial circulation. The data set can be described thus: Vasodilation in perfused hindlimb of anaesthetized dog. It counts as in vivo. Particulars: for VASODILATION score: 30 mcg/kg injected into perfused femoral artery, vs papaverine; for vasodilator activity compared with papaverine: 30 mcg/kg, in words. The procedure:
The peripheral vasodilator activity of compounds of the invention was measured in anaesthetized dog at the femoral arterial circulation. For this procedure, the femoral artery (the collaterals of which were ligated) was perfused with a constant flow rate of blood taken from aorta. The perfusion pressure measured at the femoral artery varied as a function of the resistance of the perfused area. The test compounds in diluted solvents were directly injected in the system at a dose of 30 mcg/kg. With the blood circulation rate being maintained constant, vasodilation was thus measured by a decrease of the perfusion pressure, in comparison with the action of papaverine considered as standard. The vasodilator activity was rated as follows:
+: 1/3 of the papaverine activity.
++: 2/3 of the papaverine activity.
+++: activity equal to that of papaverine (i.e. 30 to 40 mm Hg).
++++: activity higher than that of papaverine.

Data set [7] addresses T2, 5HT2 receptor (Rattus norvegicus, UniProt P14842).
T2 construct: frontal cortex preparations of rat; from tissue; host or cells: rat frontal cortex
The data set can be described thus: 5HT2 receptor binding, 3H-ketanserin, rat frontal cortex. As for the experimental part: as §2, §3

Data set [8] concerns Aorta rings. The data set can be described thus: Ca2+ antagonism on isolated rat aorta rings, contractions induced by 40 mM K+. It is filed as cell-based. Particulars: for inhibition of phasic and tonic phases of the contractions: in words. As for the experimental part:
as §1, with “The method used was updated from M Spedding (Nauyn-Schmiedeberg's Arch. Pharmacol., 318, 234-240, 1982) and can be summarized as follows: Aorta rings from male rats were prepared and maintained in oxygenated Krebs solution at 37° C.” left out

For data set [9], the system named is spontaneously hypertensive rats. The data set can be described thus: Antihypertensive activity in spontaneously hypertensive rats (SHR). Particulars: 60 mg/kg oral; for SHR score: systolic pressure up to 3 hours; for lowering of the systolic blood pressure: SHR. It is filed as in vivo, rat. The procedure: The biological activity of the compounds of the invention was evaluated in vivo on spontaneous hypertensive rats. In this test, antihypertensive activity was tested by oral administration to non-anaesthetized, spontaneously hypertensive rats, on which the systolic arterial pressure was measured at the median coccygeal artery by means of a plethysmographic method [J. Roba, G. Lambelin, A. F. De Schaepdryver, Arch. Int. Pharmacodyn., 200, 182 (1972)]. The arterial pressure was measured every 30 minutes from two hours before to three hours after oral administration of 60 mg/kg of the test compounds or of a placebo (1% tragacanth gum mucilage). Only rats having a systolic pressure of 180 to 220 mmHg were used. Each compound was tested in two rats.
The antihypertensive effects were rated as follows:
+: reduction of 10 to 20 mm Hg.
++: reduction of 20 to 30 mm Hg.
+++: reduction of 30 to 40 mm Hg.
++++: reduction >40 mm Hg.

[10] abbreviates: 37 °C, phasic part, read-out: AORTA/K+ pIC50 phasic (converted).
[11] abbreviates: 37 °C, tonic part, read-out: AORTA/K+ pIC50 tonic (converted).
[12] abbreviates: read-out: Concentration inhibiting the contractions by 50%.

T1 sequence (O35505 whole entry): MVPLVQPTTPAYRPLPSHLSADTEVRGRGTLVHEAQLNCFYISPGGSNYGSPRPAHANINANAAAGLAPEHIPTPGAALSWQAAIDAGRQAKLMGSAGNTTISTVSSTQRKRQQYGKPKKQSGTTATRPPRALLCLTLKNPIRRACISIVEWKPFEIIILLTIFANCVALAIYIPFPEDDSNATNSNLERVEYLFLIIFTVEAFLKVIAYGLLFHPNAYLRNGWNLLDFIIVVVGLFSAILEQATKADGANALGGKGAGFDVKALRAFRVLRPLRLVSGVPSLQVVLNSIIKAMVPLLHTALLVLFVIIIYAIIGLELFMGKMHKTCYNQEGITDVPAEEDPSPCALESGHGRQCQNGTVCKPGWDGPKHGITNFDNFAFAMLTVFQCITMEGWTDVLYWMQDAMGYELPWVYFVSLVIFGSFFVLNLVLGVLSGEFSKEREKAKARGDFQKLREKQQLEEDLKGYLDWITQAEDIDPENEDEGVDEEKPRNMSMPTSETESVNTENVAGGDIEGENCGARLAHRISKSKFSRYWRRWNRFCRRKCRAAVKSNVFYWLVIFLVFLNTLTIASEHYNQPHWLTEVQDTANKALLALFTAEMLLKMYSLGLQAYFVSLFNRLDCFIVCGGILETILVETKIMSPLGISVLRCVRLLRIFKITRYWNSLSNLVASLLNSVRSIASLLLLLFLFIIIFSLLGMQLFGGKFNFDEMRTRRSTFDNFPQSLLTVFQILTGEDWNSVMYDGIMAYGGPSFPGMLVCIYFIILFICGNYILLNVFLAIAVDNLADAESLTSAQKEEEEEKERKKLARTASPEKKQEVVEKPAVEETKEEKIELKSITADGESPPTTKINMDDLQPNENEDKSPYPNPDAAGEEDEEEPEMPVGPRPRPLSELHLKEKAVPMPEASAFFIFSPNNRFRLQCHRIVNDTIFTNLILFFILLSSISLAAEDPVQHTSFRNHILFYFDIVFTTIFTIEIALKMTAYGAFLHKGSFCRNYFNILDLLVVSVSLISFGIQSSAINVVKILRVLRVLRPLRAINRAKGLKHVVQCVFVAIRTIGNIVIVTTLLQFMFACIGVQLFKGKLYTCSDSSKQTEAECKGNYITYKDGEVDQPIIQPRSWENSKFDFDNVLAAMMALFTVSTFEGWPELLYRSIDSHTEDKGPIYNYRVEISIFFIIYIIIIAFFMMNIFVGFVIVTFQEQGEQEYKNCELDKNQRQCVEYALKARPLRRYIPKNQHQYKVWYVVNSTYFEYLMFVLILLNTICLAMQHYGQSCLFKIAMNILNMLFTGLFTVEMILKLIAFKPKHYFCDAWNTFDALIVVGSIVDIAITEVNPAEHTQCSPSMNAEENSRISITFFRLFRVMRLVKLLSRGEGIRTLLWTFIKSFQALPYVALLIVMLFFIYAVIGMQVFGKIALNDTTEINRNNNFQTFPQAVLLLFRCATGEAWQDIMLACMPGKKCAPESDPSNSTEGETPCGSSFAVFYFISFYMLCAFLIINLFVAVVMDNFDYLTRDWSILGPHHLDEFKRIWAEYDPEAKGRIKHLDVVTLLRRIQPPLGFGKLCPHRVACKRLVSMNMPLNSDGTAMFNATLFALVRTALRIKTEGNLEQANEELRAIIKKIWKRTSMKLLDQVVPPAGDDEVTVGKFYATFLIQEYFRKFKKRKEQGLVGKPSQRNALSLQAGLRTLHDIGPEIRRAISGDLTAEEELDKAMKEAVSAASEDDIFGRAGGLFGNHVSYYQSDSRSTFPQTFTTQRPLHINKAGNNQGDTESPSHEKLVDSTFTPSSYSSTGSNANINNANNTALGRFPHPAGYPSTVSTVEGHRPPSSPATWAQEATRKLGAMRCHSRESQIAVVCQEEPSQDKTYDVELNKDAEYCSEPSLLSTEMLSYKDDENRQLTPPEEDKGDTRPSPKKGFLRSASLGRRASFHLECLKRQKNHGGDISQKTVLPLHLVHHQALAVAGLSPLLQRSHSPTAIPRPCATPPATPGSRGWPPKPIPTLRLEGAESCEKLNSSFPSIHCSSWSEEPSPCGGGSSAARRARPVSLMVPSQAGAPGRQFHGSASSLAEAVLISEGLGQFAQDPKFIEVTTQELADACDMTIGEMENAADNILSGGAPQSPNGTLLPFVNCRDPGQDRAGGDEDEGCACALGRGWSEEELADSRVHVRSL
T2 sequence (P14842 whole entry): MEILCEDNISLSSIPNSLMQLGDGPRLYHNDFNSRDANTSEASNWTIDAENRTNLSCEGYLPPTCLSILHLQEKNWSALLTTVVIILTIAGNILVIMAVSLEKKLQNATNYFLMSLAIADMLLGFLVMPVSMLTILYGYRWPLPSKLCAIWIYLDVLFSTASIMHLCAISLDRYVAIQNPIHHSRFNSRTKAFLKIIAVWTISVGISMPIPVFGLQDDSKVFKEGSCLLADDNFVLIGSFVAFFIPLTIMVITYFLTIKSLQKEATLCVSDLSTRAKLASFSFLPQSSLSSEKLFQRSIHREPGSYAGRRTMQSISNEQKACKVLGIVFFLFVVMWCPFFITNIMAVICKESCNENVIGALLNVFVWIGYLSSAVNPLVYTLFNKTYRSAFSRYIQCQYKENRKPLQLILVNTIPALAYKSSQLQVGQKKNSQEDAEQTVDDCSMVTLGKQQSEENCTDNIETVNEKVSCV

Consider `CC(C)[C@@](C#N)(CCCN(C)CCc1ccccc1)c1ccccc1` [(S)-emopamil], for which the “action at serotonin-2 (5-HT2) receptors” value in data set [1] is “antagonist at serotonin-2 (5-HT2) receptors”. Also, the “calcium channel blocking activity” value in [2] is given as “showing calcium channel blocking activity”.

For the compound `COc1ccc(C(C#N)(CCCN(C)CC=Cc2ccccc2)C(C)C)cc1OC` (centres unmarked) [compound 7], the “competition curve at slow Ca^2+ channel binding sites” value (“competition curve” below) in data set [3] is reported as “does not reach the non-specific base-line”. Further, in [4], the “affinity for the α1 -adrenergic receptor” value was “display affinity for the α1 -adrenergic receptor” and the “α1 pKi” value is 6.8. Further, the LD50 at 360 h in [5] was over 1000 mg/kg.

Consider `COc1ccc(C(C#N)(CCCN(C)CCCCCc2ccccc2)C(C)C)cc1OC` (centres unmarked) [compound 3, 5-[5-(phenylpentyl)methylamino]-2-(3,4-dimethoxyphenyl)-2-isopropylvaleronitrile], for which, in data set [3], the “competition curve” value is on record as “reaching the non-specific level” and the Ki is 0.251 µM. Moreover, the VASODILATION score result in data set [6] is listed as “+++ (activity equal to that of papaverine (i.e. 30 to 40 mm Hg).)”. The compound also had a Ki in [7] of 0.01 µM. Besides, the “α1 pKi” value in [4] is reported as at most 6. The compound further gave an LD50 at 360 h in data set [5] of 470 mg/kg.

Regarding `CCCCCCCCN(CCCC(C#N)(c1ccc(OC)c(OC)c1)C(C)C)Cc1ccccc1` (centres unmarked) [compound 5], in data set [3], the “competition curve” value is reported as “reaching the non-specific level” and the Ki is 0.501 µM. In data set [7], this compound gave a Ki of over 1 µM. Further, in data set [4], the “α1 pKi” value is recorded as at most 6.

Take `CCCCCCCCNCCCC(C#N)(c1ccc(OC)c(OC)c1)C(C)C` (centres unmarked) [compound 8]: in data set [3], the “competition curve” value is on record as “reaching the non-specific level” and the Ki is 0.126 µM. In data set [7], the Ki is 0.158 µM. Further, in [4], the “affinity for the α1 -adrenergic receptor” value is recorded as “display affinity for the α1 -adrenergic receptor” and the “α1 pKi” value is reported as 6.7.

Take `COc1ccc(C(C#N)(CCCN(C)CCCCc2ccccc2)C(C)C)cc1OC` (centres unmarked) [Compound #2, 5-[(4-phenylbutyl)methylamino]-2-(3,4-dimethoxyphenyl)-2-isopropylvaleronitrile]: in data set [3], the “competition curve” value was “does not reach the non-specific base-line”. Also, the IC50 in data set [8] (setting [10]) was 0.0631 µM. Moreover, the IC50 in data set [8] (setting [11]) is 0.1 µM. Besides, in data set [8], the “inhibition of phasic and tonic phases of the contractions” value is given as “similarly inhibited”. Moreover, the IC50 in [8] (setting [12]) was determined as 0.06 µM. Further, in data set [6], the VASODILATION score entry is on record as “++++” and the “vasodilator activity compared with papaverine” value is “more active than papaverine”. In [9], the SHR score entry is on record as “++++ (reduction >40 mm Hg.)” and the “lowering of the systolic blood pressure” value was “more than 40 mm Hg”. This compound also had a Ki in data set [7] of 0.1 µM. Also, in data set [4], the “affinity for the α1 -adrenergic receptor” value is listed as “display affinity for the α1 -adrenergic receptor” and the “α1 pKi” value was 7. The LD50 at 360 h in data set [5] was found to be 350 mg/kg.

For `COc1ccc(C(C#N)(CCCN(C)CCCc2ccccc2)C(C)C)cc1OC` (centres unmarked) [compound 4], the “competition curve” value in data set [3] is reported as “does not reach the non-specific base-line”. Moreover, the Ki in data set [7] is 0.0316 µM. In addition, in data set [4], the “α1 pKi” value is reported as at most 6. In addition, the LD50 at 360 h in data set [5] amounted to 540 mg/kg.

In [3], `CCOC(=O)C1=C(C)NC(C)=C(C(=O)OC)C1c1cccc([N+](=O)[O-])c1` (centres unmarked) [nitrendipine, reference compound] registered a Kd of 0.0002 µM.

As to `CCCCCCCCN(C)CCCC(C#N)(c1ccc(OC)c(OC)c1)C(C)C` (centres unmarked) [Compound #1, 5-[(n-octyl)methylamino]-2-(3,4-dimethoxyphenyl) -2-isopropyl-valeronitrile], the “competition curve” value in data set [3] is reported as “does not reach the non-specific base-line”. The IC50 in data set [8] (setting [10]), in data set [8] (setting [11]) and in data set [8] (setting [12]) was 0.2 µM in each case. For the same compound, the “inhibition of phasic and tonic phases of the contractions” value in data set [8] was “similarly inhibited”. In addition, in data set [6], the VASODILATION score entry was “++++”. Besides, the “vasodilator activity compared with papaverine” value in [6] was “more active than papaverine”. The SHR score entry in data set [9] is reported as “++++ (reduction >40 mm Hg.)”. Moreover, the “lowering of the systolic blood pressure” value in data set [9] was “more than 40 mm Hg”. For the same compound, the Ki in [7] is 0.1 µM. The “α1 pKi” value in data set [4] is reported as at most 6. Further, in data set [5], the LD50 at 360 h is over 300 mg/kg.

For `CCCCCCCCCCN(C)CCCC(C#N)(c1ccc(OC)c(OC)c1)C(C)C` (centres unmarked) [compound 6, 5-[(n-decyl)methylamino]-2-(3,4-dimethoxyphenyl)-2-isopropylvaleronitrile], in data set [3], the “competition curve” value is reported as “reaching the non-specific level”. For the same compound, the Ki is 0.0398 µM in data set [3] and 0.1 µM in [7]. The IC50 in data set [8] (37 °C, one value printed for phasic/tonic, read-out: AORTA/K+ pIC50 phasic/tonic (converted)) is at least 1 µM. Moreover, the “α1 pKi” value in data set [4] is under 6.

The values are drawn from patent publication US5643947A, “ω-amino-α-phenylalkanonitrile derivatives” (G. D. Searle & Co., priority 1995, dated 1997).
